Assay results published in patent US11186606B2, “Compositions and methods of modulating the immune response by activating alpha protein kinase 1” (Shanghai Yao Yuan Biotechnology Co., Ltd., priority 2017, dated 2021).

Experiments:
[1] = tested on: phosphatase activity in the serum; assay: Incubation of H1b-ADP with FBS, product analysed by LC-MS; format: in vitro ADME, bovine; conditions: 1 mM, pre-mixed with H1b-ADP before incubation with FBS
Excerpt: (§1) FBS contains 110-352 U/ml alkaline phosphatase.

[2] = tested on: bovine alkaline phosphatase; assay: Incubation of H1b-ADP with bovine alkaline phosphatase; format: biochemical
Excerpt: as §1

ALPK1 = assay: IL8 secretion in HEK293 cells (IL8 ELISA) as indicator of ALPK1 activation; conditions: added to the FBS-containing medium, HEK293 cells, IL8 secretion
Procedure: We pre-mixed H1b-ADP with phosphatase inhibitor sodium orthovanadate (Na3VO4) before incubation with FBS.
In these experiments, serial dilutions of the compounds were added to the tissue culture media of HEK293 cells with (FIG. 27B, FIG. 28B, FIG. 29B) or without (FIG. 26, FIG. 27A, FIG. 28A, FIG. 29A) 10% FBS, as indicated in the figures. After 4 hours, the cell supernatant was collected and analyzed for IL8 concentration using IL8 ELISA (BD) as an indicator of ALPK1 activation.

H1b-ADP hydrolysis [1]: effectively inhibited H1b-ADP hydrolysis
phosphatase activity (H1b-ADP hydrolysis) [2]: blocked by increasing amount of Na3VO4
Structure (SMILES): [Na+].[Na+].[Na+].[O]=[V]([O-])([O-])[O-] [Na3VO4, sodium orthovanadate]
restoration of H1b-ADP's activity in the cell based assay (ALPK1): could restore H1b-ADP's activity
